Measurements as given in US7795437B2, “Ether derivatives” (Hoffmann-La Roche Inc., priority 2006, dated 2010).

What was measured:
[1] = molecular target: T1, human D3 dopamine receptor (Homo sapiens, UniProt P35462); assay: Radioligand binding to cloned human D3 receptor ([3H]-spiperone); conditions: first value of D3/5HT2A/D2; membranes of transfected HEK-293 EBNA cells, 0.5 nM [3H]-spiperone, 1 h at RT
T1 construct: expressed in transfected cells; host or cells: HEK-293 EBNA cells (transient transfection; membrane preparation)
T1 sequence (P35462 whole entry): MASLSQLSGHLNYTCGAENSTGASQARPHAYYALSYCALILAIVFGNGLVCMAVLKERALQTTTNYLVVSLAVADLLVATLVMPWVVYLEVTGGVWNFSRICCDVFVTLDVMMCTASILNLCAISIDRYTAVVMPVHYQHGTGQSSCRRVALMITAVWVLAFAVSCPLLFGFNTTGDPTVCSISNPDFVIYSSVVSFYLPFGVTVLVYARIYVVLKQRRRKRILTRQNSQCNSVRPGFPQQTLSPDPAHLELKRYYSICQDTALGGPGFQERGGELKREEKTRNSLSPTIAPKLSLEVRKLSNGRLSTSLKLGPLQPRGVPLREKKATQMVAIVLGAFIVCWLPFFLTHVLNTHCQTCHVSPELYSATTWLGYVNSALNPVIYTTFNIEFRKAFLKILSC
Description: (§1) The ability of compounds of the present invention to bind to the 5-HT2A, D3 and D2 receptors was determined using radioligand binding to cloned receptors selectively expressed in HEK-293 EBNA cells.
(§2) Membrane Preparation for Human D2, Human D3 and Human 5-HT2A Receptors
(§3) HEK-293 EBNA cells were transiently transfected with expression plasmids encoding for the human D2 or D3 dopamine- or for the human 5-HT2A serotonin receptor, respectively. The cells were harvested 48 hours post-transfection, washed three times with cold phosphate buffered saline (PBS) and stored at −80° C. prior to use. The pellet was suspended in cold 50 mM Tris-HCl buffer containing 10 mM EDTA (pH 7.4) and homogenized with a Polytron (Kinematica AG, Basel, Switzerland) for 20-30 seconds at 12.000 rpm. After centrifugation at 48.000×g for 30 minutes at 4° C., the pellet was resuspended in cold 10 mM Tris-HCl buffer containing 0.1 mM EDTA (pH 7.4), homogenized, and centrifuged as above. This pellet was further resuspended in a smaller volume of ice cold 10 mM Tris-HCl buffer containing 0.1 mM EDTA (pH 7.4) and homogenized with a Polytron for 20-30 sec at 12.000 rpm. The protein content of this homogenate was determined with the Bio-Rad (Bradford) Protein Assay (Biorad Laboratories GmbH, München, Germany) according to the instructions of the manufacturer using gamma globulin as the standard. This homogenate was stored at −80° C. in aliquots and thawed immediately prior to use.
(§4) Radioligand Binding Assay Conditions
(§5) Aliquots of membrane preparations were thawed at room temperature, resuspended in assay buffer (D2, D3: 50 mM Tris-HCl, 120 mM NaCl, 5 mM MgCl2, 1 mM EDTA, 5 mM KCl, 1.5 mM CaCl2, pH=7.4; 5-HT2A: 50 mM Tris-HCl, 10 mM MgCl2, 1 mM EGTA, pH=7.4), homogenized with a Polytron for 20-30 seconds at 12.000 rpm and adjusted to a final concentration of approximately 7.5 μg protein/well (D2, D3) and 15 μg protein/well (5-HT2A), respectively.
(§6) The binding affinity (Ki) of the compounds was determined using radioligand binding. Membranes were incubated in a total volume of 200 μl with a fixed concentration of radioligand (final concentration approximately 0.7 nM [^3H]-spiperone for D2, 0.5 nM [^3H]-spiperone for D3, and 1.1 nM [^3H]-ketanserin for 5-HT2A) and ten concentrations of test compound ranging between 10 μM-0.1 nM for 1 h at RT. At the end of the incubation, the reaction mixtures were filtered on to unifilter 96-well white microplates with bonded GF/C filters (Packard BioScience, Zudrich, Switzerland; preincubated for 1 h in 0.1% polyethylenimine (PEI) in assay buffer) with a Filtermate 196 harvester (Packard BioScience) and washed 3 times with cold assay buffer. The nonspecific binding was determined with equally composed reaction mixtures in the presence of 10 μM unlabelled spiperone. Per well 45 μl of Microscint 40 (Perkin Elmer, Schwerzenbach, Switzerland) was added, plates for sealed, shaken for 20 min and counted for 3 minutes on a Topcount Microplate Scintillation Counter (Can berra Packard SA, Zu-rich, Switzerland) with quenching correction.
(§7) The CPM value for each duplicate of a concentration of competing compound was averaged (y1), then the % specific binding was calculated according to the equation (((y1−non-specific)/(total binding-non-specific))×100). Graphs were plotted with the % specific binding using XLfit, a curve fitting program that iteratively plots the data using Levenburg Marquardt algorithm. The single site competition analysis equation used was y=A+((B−A)/(1+((x/C)^D))), where y is the % specific binding, A is the minimum y, B is the maximum y, C is the IC50, x is the log10 of the concentration of the competing compound and D is the slope of the curve (the Hill Coefficient). From these curves the IC50 (inhibition concentration at which 50% specific binding of the radioligand was displaced) and Hill coefficient were determined. […]

[2] = molecular target: T2, human D2 dopamine receptor (Homo sapiens, UniProt P14416); assay: Radioligand binding to cloned human D2 receptor ([3H]-spiperone); conditions: third value of D3/5HT2A/D2; membranes of transfected HEK-293 EBNA cells, 0.7 nM [3H]-spiperone, 1 h at RT
T2 construct: expressed in transfected cells; host or cells: HEK-293 EBNA cells (transient transfection; membrane preparation)
T2 sequence (P14416 whole entry): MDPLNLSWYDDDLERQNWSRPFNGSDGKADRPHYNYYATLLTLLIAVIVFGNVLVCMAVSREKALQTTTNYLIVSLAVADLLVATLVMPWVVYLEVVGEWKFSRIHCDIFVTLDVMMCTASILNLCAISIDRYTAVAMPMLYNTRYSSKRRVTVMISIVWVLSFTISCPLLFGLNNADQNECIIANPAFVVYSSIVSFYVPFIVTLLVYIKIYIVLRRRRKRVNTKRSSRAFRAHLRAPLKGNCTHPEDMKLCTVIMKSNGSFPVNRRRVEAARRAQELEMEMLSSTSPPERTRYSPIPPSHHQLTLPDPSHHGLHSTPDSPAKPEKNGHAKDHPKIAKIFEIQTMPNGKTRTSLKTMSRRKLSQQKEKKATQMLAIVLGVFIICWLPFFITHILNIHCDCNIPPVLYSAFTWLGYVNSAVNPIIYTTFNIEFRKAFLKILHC
Description: as §1, §2, §3, §4, §5, §6, §7

[3] = molecular target: T3, human 5-HT2A serotonin receptor (Homo sapiens, UniProt P28223); assay: Radioligand binding to cloned human 5-HT2A receptor ([3H]-ketanserin); conditions: second value of D3/5HT2A/D2; membranes of transfected HEK-293 EBNA cells, 1.1 nM [3H]-ketanserin, 1 h at RT
T3 construct: expressed in transfected cells; host or cells: HEK-293 EBNA cells (transient transfection; membrane preparation)
T3 sequence (P28223 whole entry): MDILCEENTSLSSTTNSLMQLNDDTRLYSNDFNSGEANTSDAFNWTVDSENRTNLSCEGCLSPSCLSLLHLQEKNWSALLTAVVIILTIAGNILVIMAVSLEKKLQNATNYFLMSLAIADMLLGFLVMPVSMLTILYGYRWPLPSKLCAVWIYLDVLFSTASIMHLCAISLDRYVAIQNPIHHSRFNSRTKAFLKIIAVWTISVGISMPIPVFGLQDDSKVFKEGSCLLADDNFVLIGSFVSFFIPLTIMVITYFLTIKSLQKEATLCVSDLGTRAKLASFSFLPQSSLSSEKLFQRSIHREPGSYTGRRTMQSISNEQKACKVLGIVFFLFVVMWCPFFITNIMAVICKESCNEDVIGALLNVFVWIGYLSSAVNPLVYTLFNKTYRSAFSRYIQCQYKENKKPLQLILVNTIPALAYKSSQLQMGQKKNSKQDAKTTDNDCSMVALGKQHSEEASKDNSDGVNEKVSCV
Description: as §1, §2, §3, §4, §5, §6, §7

| SMILES | Ki [1] | Ki [2] | Ki [3] |
| --- | --- | --- | --- |
| O=C(N[C@H]1CC[C@H](CCN2CCC(Oc3ccc(F)cc3Cl)CC2)CC1)C1CCOCC1 [Example 15, Tetrahydro-pyran-4-carboxylic acid trans (4-{2-[4-(2-chloro-4-fluoro-phenoxy)-piperidin-1-yl]-ethyl}-cyclohexyl)-amide] | 17 nM | 556 nM | 2 nM |
| CC(=O)N[C@H]1CC[C@H](CCN2CCC(Oc3ccc(Cl)cc3C#N)CC2)CC1 [Example 62, N-trans-(4-{2-[4-(4-Chloro-2-cyano-Phenoxy)-piperidin-1-yl]-ethyl}-cyclohexyl)-acetamide] | 100 nM | 3320 nM | 43 nM |
| CCC(=O)N[C@H]1CC[C@H](CCN2CCC(Oc3ccc(F)cc3Cl)CC2)CC1 [Example 18, N-trans (4-{2-[4-(2-Chloro-4-fluoro-phenoxy)-piperidin-1-yl]-ethyl}-cyclohexyl)-propionamide] | 5 nM | 604 nM | 2 nM |
| Cc1ccc(NC(=O)N[C@H]2CC[C@H](CCN3CCC(Oc4ccc(F)cc4Cl)CC3)CC2)cc1 [Example 21, 1-trans(4-{2-[4-(2-Chloro-4-fluoro-phenoxy)-piperidin-1-yl]-ethyl}-cyclohexyl)-3-p-tolyl-urea] | 3 nM | 697 nM | 2 nM |
| CC(=O)N[C@H]1CC[C@H](CCN2CCC(Oc3ccc(F)cc3)CC2)CC1 [Example 8, Trans N-(4-{2-[4-(4-Fluoro-phenoxy)-piperidin-1-yl]-ethyl}-cyclohexyl)-acetamide] | 50 nM | 843 nM | 31 nM |
| COCCC(=O)N[C@H]1CC[C@H](CCN2CCC(Oc3ccc(F)cc3)CC2)CC1 [Example 3, N-(trans-4-{2-[4-(4-Fluoro-phenoxy)-piperidin-1-yl]-ethyl}-cyclohexyl)-3-methoxy-propionamide] | 48 nM | 1470 nM | 22 nM |
| CC(=O)N[C@H]1CC[C@H](CCN2CCC(Oc3ccc(F)cc3Cl)CC2)CC1 [Example 19, N-trans(4-{2-[4-(2-Chloro-4-fluoro-phenoxy)-piperidin-1-yl]-ethyl}-cyclohexyl)-acetamide] | 12 nM | 683 nM | 3 nM |
| O=C(N[C@H]1CC[C@H](CCN2CCC(Oc3cccc(Cl)c3Cl)CC2)CC1)c1ccnc2ccccc12 [Example 72, Quinoline-4-carboxylic acid trans(4-{2-[4-(2,3-dichloro-phenoxy)-piperidin-1-yl]-ethyl}-cyclohexyl)-amide] | 5 nM | 319 nM | 9 nM |
| COCCC(=O)N[C@H]1CC[C@H](CCN2CCC(Oc3ccc(F)cc3Cl)CC2)CC1 [Example 13, N-trans (4-{2-[4-(2-Chloro-4-fluoro-phenoxy)-piperidin-1-yl]-ethyl}-cyclohexyl)-3-methoxy-propionamide] | 14 nM | 790 nM | 3 nM |
| Cc1ccc(NC(=O)N[C@H]2CC[C@H](CCN3CCC(Oc4ccc(F)cc4)CC3)CC2)cc1 [Example 10, Trans-1-(4-{2-[4-(4-Fluoro-phenoxy)-piperidin-1-yl]-ethyl}-cyclohexyl)-3-p-tolyl-urea] | 16 nM | 592 nM | 22 nM |
| O=C(Nc1ccc(Cl)cc1)N[C@H]1CC[C@H](CCN2CCC(Oc3ccc(F)cc3)CC2)CC1 [Example 9, Trans-1-(4-Chloro-phenyl)-3-(4-{2-[4-(4-fluoro-phenoxy)-piperidin-1-yl]-ethyl}-cyclohexyl)-urea] | 14 nM | 574 nM | 13 nM |
| O=C(N[C@H]1CC[C@H](CCN2CCC(Oc3ccc(F)cc3F)CC2)CC1)c1ccnc2ccccc12 [Example 24, Quinoline-4-carboxylic acid trans(4-{2-[4-(2,4-difluoro-phenoxy)-piperidin-1-yl]-ethyl}-cyclohexyl)-amide] | 8 nM | 453 nM | 3 nM |
| O=C(N[C@H]1CC[C@H](CCN2CCC(Oc3ccncc3)CC2)CC1)c1ccnc2ccccc12 [Example 74, Quinoline-4-carboxylic acid (trans-4-{2-[4-(Pyridin-4-yloxy)-piperidin-1-yl]-ethyl}-cyclohexyl)-amide] | 208 nM | 3000 nM | 60 nM |
| Cc1nc(-c2cccc(C(=O)N[C@H]3CC[C@H](CCN4CCC(Oc5ccc(F)cc5Cl)CC4)CC3)c2)no1 [Example 16, N-trans (4-{2-[4-(2-Chloro-4-fluoro-phenoxy)-piperidin-1-yl]-ethyl}-cyclohexyl)-3-(5-methyl-[1,2,4]oxadiazol-3-yl)-benzamide] | 11 nM | 553 nM | 5 nM |
| O=C(N[C@H]1CC[C@H](CCN2CCC(Oc3cc(F)c(F)cc3F)CC2)CC1)C1CCOCC1 [Example 51, Tetrahydro-pyran-4-carboxylic acid trans(4-{2-[4-(2,4,5-trifluoro-phenoxy)-piperidin-1-yl]-ethyl}-cyclohexyl)-amide] | 29 nM | 638 nM | 36 nM |
| O=C(N[C@H]1CC[C@H](CCN2CCC(Oc3ccc(F)cc3Cl)CC2)CC1)c1ccnc2ccccc12 [Example 11, Quinoline-4-carboxylic acid trans(4-{2[4-(2-chloro-4-fluoro-phenoxy)-piperidin-1-yl]-ethyl}-cyclohexyl)-amide] | 17 nM | 321 nM | 2 nM |
